Patent US8742083B1, “Panel of micrornas that silence the MCL-1 gene and sensitize cancer cells to ABT-263” (AbbVie Inc., priority 2009, dated 2014)

Tests used:
Assay type in all cases: cell-based, human
HCT-116 cells = assay: ABT-263 sensitization, CellTiter Glo cell viability after reverse transfection of miRNA/siRNA; details: for sensitization of HCT-116 cells to ABT-263, in words / sensitization of HCT-116 cells to ABT-263 (decrease in cell viability): 1 μM ABT-263, 48 hours; for sensitization of HCT-116 cells to ABT-263, in words: reverse transfection (miRNA 50 nM, siRNA 12.5 nM); for sensitization of HCT-116 cells to ABT-263 (decrease in cell viability): 50 nM miRNA mimic reverse transfected
Procedure: HCT-116 and CHL1 cells were purchased from the American Type Culture Collection (ATCC) and cultured in DMEM (Invitrogen Corp., Grand Island, N.Y.) supplemented with 10% fetal bovine serum (Invitrogen) and 1% penicillin/streptomycin (Invitrogen). All cell lines were maintained in a humidified chamber at 37° C. containing 5% CO2. These cells were authenticated by morphological, cell proliferation and Mycoplasma tests recommended in the ATCC Technical Bulletin no, 8 (2007). Cells were reverse transfected at 1.5−2.5×10^4 cells/[…] in 96-well tissue culture plates. siRNA or miRNA transfection was performed using Lipofectamine 2000 according to manufacturer's instructions (Invitrogen). For Mcl-1 and Bcl-xl siRNA transfections, a final concentration of 12.5 nM siRNA was used. For miRNA transfections, a final concentration of 50 nM miRNA was used. The cells were then grown in medium without antibiotic for 2 days before harvesting. For reporter experiments, 100 ng of pcDNA3-Mcl-1-3′UTR-luciferase reporter construct (21) was included in the liposome complex mix. Forty-eight hours after transfection, cells were assayed for viability using CellTiter Glo Luminescent cell viability assay according to the manufacturer's protocol (Promega). Caspase 3/7 activity was measured using the Caspase-Glo 3/7 assay (Promega). Luciferase activity was measured using the Steady-Glo reagent according to the manufacturer's protocol (Promega).
HCT-116 cells were reverse transfected as described in Example 1 above. Three replica plates were treated with 1 μM ABT-263 in media. […] HCT-116 cells were reverse transfected with sensitizing miRNAs in the presence or absence of 1 μM ABT-263 for 48 hours. Cell viability was measured with CellTiter Glo assay. MiR-29 and miR-125 were used as positive and negative controls for this assay. miRNAs that sensitize HCT-116 cells to ABT-263 by more than 25% are shown. FIG. 1B is a bar graph showing miRNAs that sensitize CHL1 cells to ABT-263. CHL1 cells were reverse transfected with sensitizing miRNAs in the presence or absence of 1 μM ABT-263 for 48 hours. Cell viability was measured with CellTiter Glo assay. Only miRNAs that sensitize HCT-116 cells to ABT-263 by more than 25% were shown. (See FIG. 6 for the complete list of 42 miRNAs). FIG. 1C is a bar graph showing modulation of Mcl-1 protein expression by sensitizing miRNAs in CHL1 cells. CHL1 cells were reverse transfected with sensitizing miRNAs. Mcl-1 expression was measured using a Luminex-based assay as described in the Methods section.
To identify miRNAs that modulate sensitivity of cells to Bcl-2 family inhibitor ABT-263, an miRNA “sensitization” screen was performed using an miRNA mimic library in the presence of ABT-263. The screen was conducted in a colon cancer cell line HCT-116. […] Synthetic miRNA mimics were reverse transfected into HCT-116 cells in the presence or absence of ABT-263 (FIG. 4). Reverse transfection of Mcl-1 siRNA and predicted Mcl-1-targeting miRNAs sensitized HCT-116 cells to 1 μM ABT-263 after 48 hours.
HCT-116 cells were reverse transfected with a library of 810 annotated miRNA mimics in triplicate in the presence of 1 μM ABT-263 (FIG. 5A). Viability of cells was determined after 2 days. […] Z-scores were used to select candidate miRNAs for subsequent experiments. Of 810 miRNA mimics, 80 increased cell death in the presence of ABT-263. Thirty-eight of these 80 miRNAs either reduced cell viability in the absence of ABT-263 (Z←1.5) or represented mimic replicates from the screen, and therefore were not subjected to further testing. The remaining 42 miRNAs were tested in a secondary screen to assess their effect in the presence or absence of ABT-263. MiR-29 and miR-125 were used as control for this screen. […] FIG. 6A identifies miRNAs that sensitize HCT-116 cells to ABT-263. HCT-116 cells were reverse transfected with sensitizing miRNAs in the presence or absence of 1 μM ABT-263 for 48 hours. Cell viability was measured with CellTiter Glo assay. […]

CHL1 cells = assay: as above; details: no ABT-263
Procedure: (§1) HCT-116 and CHL1 cells were purchased from the American Type Culture Collection (ATCC) and cultured in DMEM (Invitrogen Corp., Grand Island, N.Y.) supplemented with 10% fetal bovine serum (Invitrogen) and 1% penicillin/streptomycin (Invitrogen). All cell lines were maintained in a humidified chamber at 37° C. containing 5% CO2. These cells were authenticated by morphological, cell proliferation and Mycoplasma tests recommended in the ATCC Technical Bulletin no, 8 (2007). Cells were reverse transfected at 1.5−2.5×10^4 cells/[…] in 96-well tissue culture plates. siRNA or miRNA transfection was performed using Lipofectamine 2000 according to manufacturer's instructions (Invitrogen). […] Caspase 3/7 activity was measured using the Caspase-Glo 3/7 assay (Promega). Luciferase activity was measured using the Steady-Glo reagent according to the manufacturer's protocol (Promega).
HCT-116 cells were reverse transfected as described in Example 1 above. […] Cell viability was measured with CellTiter Glo assay. […] Cell viability was measured with CellTiter Glo assay. […] Mcl-1 expression was measured using a Luminex-based assay as described in the Methods section.
HCT-116 cells were reverse transfected with a library of 810 annotated miRNA mimics in triplicate in the presence of 1 μM ABT-263 (FIG. 5A). Viability of cells was determined after 2 days. […] Cell viability was measured with CellTiter Glo assay. […]

Mcl-1 = Mcl-1 protein expression, Luminex-based assay, in HCT-116 cells; details: 50 nM miRNA or Mcl-1 siRNA, 48 hours
Description: The present disclosure also provides a method for determining whether an miRNA increases sensitivity of a subject to treatment with a Bcl-2 family inhibitor. The method includes a) reverse transfecting a population of cancer cells with the candidate miRNA; b) contacting the cells with an effective amount of the Bcl-2 family inhibitor, and c) determining Mcl-1 expression level in the cells, wherein a decrease in Mcl-1 expression is indicative that the miRNA increases sensitivity of the subject to treatment with the Bcl-2 family inhibitor. Mcl-1 protein expression can be measured using a liquid phase immunoassay using Luminex beads. In brief, an Mcl-1 capture antibody is conjugated to Luminex beads (bead region 9) and an Mcl-1 detection antibody conjugated to biotin. […] Cell assay buffer is added after filtering and the plate is read using a Luminex 200 station. […]
Mcl-1 protein expression was measured using a new Mcl-1 assay based on the Luminex technology. […] Cell assay buffer was added after filtering and the plate was read using a Luminex 200 station. The liquid-phase quantitative protein assay was used to measure the levels of Mcl-1 in cells. […] Using this new Mcl-1 quantitative assay, the effect of these miRNAs on the Mcl-1 protein levels in CHL1 cells was measured. […]

Mcl-1 3′-UTR = Mcl-1 3′-UTR luciferase reporter assay in HCT-116 cells; details: HCT-116 cells cotransfected with 100 ng reporter, 48 hours
Procedure: as §1
MiRNA could modulate sensitivity to ABT-263 through several mechanisms: by directly targeting the Mcl-1 gene 3′-UTR and repressing protein translation or by targeting molecules involved in regulating Mcl-1 expression or function. […] Measure was taken of the effect of two Mcl-1 siRNAs and the twelve strongest sensitizing miRNAs on the Mcl-1 protein levels in HCT-116 cells using the Mcl-1 quantitative assay described above. […] Mcl-1 protein expression was measured using the Mcl-1 Luminex assay. […]

Q: How did the “effect of ABT-263 alone on HCT-116 cell viability” value (HCT-116 cells; in the presence of the control siRNA and miRNA) turn out when `CC1(C)CCC(c2ccc(Cl)cc2)=C(CN2CCN(c3ccc(C(=O)NS(=O)(=O)c4ccc(N[C@H](CCN5CCOCC5)CSc5ccccc5)c(S(=O)(=O)C(F)(F)F)c4)cc3)CC2)C1` [ABT-263, N-(4-(4-((2-(4-chlorophenyl)-5,5-dimethyl-1-cyclohex-1-en-1-yl)methyl)pip-erazin-1-yl)benzoyl)-4-(((1R)-3-(morpholin-4-yl)-1-((phenylsulfanyl)methyl-)propyl)amino)-3-((trifluoromethyl)sulfonyl)benzenesulfonamide] was run?
A: The value was ≤ 25%.

Q: What does the source list for “Mcl-1 siRNA: Mcl-1 targeting siRNA, sequence GCATCGAACCATTAGCAGATT (listed as DNA, chemistry not given here)”?
A: sensitization of HCT-116 cells to ABT-263, in words (HCT-116 cells): significantly sensitize; HCT-116 cell viability after transfection in the absence of ABT-263 (HCT-116 cells; no ABT-263): would not affect cell viability; CHL1 cell viability after transfection in the absence of ABT-263 (CHL1 cells): affected CHL1 cell viability

Q: How did the “sensitization of HCT-116 cells to ABT-263, in words” value (HCT-116 cells) turn out when “miR-29: control miRNA (positive control), sequence UAGCACCAUUUGAAAUCAGUGUU (listed as RNA, chemistry not given here)” was run?
A: Its value is “much weaker”.

Q: How did the “sensitization of HCT-116 cells to ABT-263, in words” value (HCT-116 cells) turn out when “miR-125: control miRNA (negative control), sequence UCCCUGAGACCCUUUAACCUGUGA (listed as RNA, chemistry not given here)” was run?
A: Its value is “did not sensitize”.

Q: “miR-153: sensitizing human miRNA, sequence UUGCAUAGUCACAAAAGUGAUC (listed as RNA, chemistry not given here)” was tested. Which “sensitization of HCT-116 cells to ABT-263 (decrease in cell viability)” value (HCT-116 cells) did it give?
A: Its value is ~50%.

Q: With “miR-193a: sensitizing human miRNA, sequence AACUGGCCUACAAAGUCCCAGU (listed as RNA, chemistry not given here)” as the compound, how does the “sensitization of HCT-116 cells to ABT-263 (decrease in cell viability)” value (HCT-116 cells) read?
A: The value was ~50%.

Q: What does the source list for “miR-605: sensitizing human miRNA, sequence UAAAUCCCAUGGUGCCUUCUCCU (listed as RNA, chemistry not given here)”?
A: Mcl-1 protein expression in HCT-116 cells (Mcl-1): affected the Mcl-1 protein expression; luciferase activity of Mcl-1 3′-UTR reporter (Mcl-1 3′-UTR): did not reduce the luciferase activity

Q: How did the “Mcl-1 protein expression in HCT-116 cells” value (Mcl-1) turn out when “miR-744*: sensitizing human miRNA, sequence CUGUUGCCACUAACCUCAACCU (listed as RNA, chemistry not given here)” was run?
A: Its value is “affected the Mcl-1 protein expression”.

Q: And the “luciferase activity of Mcl-1 3′-UTR reporter” value (Mcl-1 3′-UTR)?
A: The value was “did not reduce the luciferase activity”.
